How the values were obtained:
[1] = system: MA148 human ovarian carcinoma cells; assay: [3H]thymidine incorporation cell proliferation assay (FIG. 15); format: cell-based; conditions: compared with 0118
Text: Evaluation of the anti-angiogenic activity of lower-rim substituted 0118 analogues (compound 4, compound 5) and equatorially substituted 0118 analogues (compound 13, compound 14, compound 18a, compound 18b, compound 18c).

[2] = system: endothelial cell proliferation; assay: endothelial cell proliferation assays; format: cell-based
Text: As an alternative to upper-rim substitution, [^18F]-labeled synthons may also be introduced at the lower rim or at an equatorial position of the calix[4]arene core of compound 0118. […] Based on this knowledge, close mimetics of compound 0118 have been produced, where one of the four lower rim substituents is replaced by a substituent containing an alkyne- or azide-functional group, providing access to [^18F]fluoroalkyltriazole-labeled compound 0118 analogues via Huisgen 1,3-dipolar cycloaddition reaction with the corresponding [^18F]fluoroalkynes and [^18F]fluoroazides, respectively.

## C#CCCOc1c2cccc1Cc1cccc(c1OCC(=O)NCCN(C)C)Cc1cccc(c1OCC(=O)NCCN(C)C)Cc1cccc(c1OCC(=O)NCCN(C)C)C2 [compound 4, 25,26,27-Tris-N—(N,N-dimethyl-2-aminoethyl)carbamoylmethoxy-28-(3′-butynyloxy)calix[4]arene]
[1]
  potency of inhibition of MA148 cell proliferation relative to parent compound 0118: at least equipotent

## CN(C)CCNC(=O)COc1c2cccc1Cc1cccc(c1OCC(=O)NCCN(C)C)Cc1cccc(c1OCC(=O)NCCN(C)C)Cc1cccc(c1OCCc1cn(CCF)nn1)C2 [compound 5, 25,26,27-Tris-N—(N,N-dimethyl-2-aminoethyl)carbamoylmethoxy-28-{2′-[1-(2-fluorethyl)-1H-[1,2,3]triazo-4-yl]ethyloxy}calix[4]arene]
[2]
  anti-angiogenic potency compared with compound 0118: comparable anti-angiogenic potency
[1]
  potency of inhibition of MA148 cell proliferation relative to parent compound 0118: more potent inhibitor of MA148 cell proliferation

## C#CCC1c2cccc(c2OCC(=O)NCCN(C)C)Cc2cccc(c2OCC(=O)NCCN(C)C)Cc2cccc(c2OCC(=O)NCCN(C)C)Cc2cccc1c2OCC(=O)NCCN(C)C [compound 13, 25,26,27,28-Tetrakis-N—(N,N-dimethyl-2-aminoethyl)carbamoylmethoxy-2-(prop-2′-yn-1′-yl)calix[4]arene]
[1]
  potency of inhibition of MA148 cell proliferation relative to parent compound 0118: at least three times more potent than 0118

## CN(C)CCNC(=O)COc1c2cccc1Cc1cccc(c1OCC(=O)NCCN(C)C)C(Cc1cn(CCF)nn1)c1cccc(c1OCC(=O)NCCN(C)C)Cc1cccc(c1OCC(=O)NCCN(C)C)C2 [compound 14, 25,26,27,28-Tetrakis-N—(N,N-dimethyl-2-aminoethyl)carbamoylmethoxy-2-{[1-(2-fluorethyl)-1H-[1,2,3]triazo-4-yl]methyl}calix[4]arene]
[1]
  potency of inhibition of MA148 cell proliferation relative to parent compound 0118: at least three times more potent than 0118

## CCCC1c2cccc(c2OCC(=O)NCCN(C)C)Cc2cccc(c2OCC(=O)NCCN(C)C)Cc2cccc(c2OCC(=O)NCCN(C)C)Cc2cccc1c2OCC(=O)NCCN(C)C [compound 18b, 25,26,27,28-Tetrakis-N—(N,N-dimethyl-2-aminoethyl)carbamoylmethoxy-2-propylcalix[4]arene]
[1]
  potency of inhibition of MA148 cell proliferation relative to parent compound 0118: at least three times more potent than 0118

Reference: US20150147273A1, “RADIOLABELED ANALOG(S) OF COMPOUND 0118 AND USE THEREOF IN CONNECTION WITH PET AND/OR SPECT IMAGING TO DETERMINE WHETHER A PHARMACEUTICAL CONTAINING COMPOUND 0118 IS A CANDIDATE CANCER TREATMENT FOR A PATIENT” (KONINKLIJKE PHILIPS N.V., priority 2012, published 2015)
